Data on 38 compounds can be found in US9453014B2, “Cyclic amide derivatives as inhibitors of 11-β-hydroxysteroid dehydrogenase and uses thereof” (CONNEXIOS LIFE SCIENCES PVT. LTD., priority 2011, dated 2016).

Molecules are shown by their SMILES.

What is called IC50 is the concentration that gives 50% inhibition.

T1 sequence (P28845 whole entry): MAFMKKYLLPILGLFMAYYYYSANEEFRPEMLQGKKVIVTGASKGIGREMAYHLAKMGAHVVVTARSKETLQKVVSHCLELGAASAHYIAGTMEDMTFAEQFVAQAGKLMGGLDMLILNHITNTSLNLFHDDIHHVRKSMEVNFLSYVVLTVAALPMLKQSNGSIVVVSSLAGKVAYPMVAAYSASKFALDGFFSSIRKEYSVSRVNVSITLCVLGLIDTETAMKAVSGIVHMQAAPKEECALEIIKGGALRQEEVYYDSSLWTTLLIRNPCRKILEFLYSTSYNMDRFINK

This experiment concerns the target T1, human full length HSD11 β 1 (Homo sapiens, UniProt P28845).
T1 construct: transient expression of human full length HSD11 β 1 expression vector; host or cells: CHO cells (transient transfection)
Description: In Vitro HSD11β1 Inhibition Assay. In kind it is cell-based. As to conditions: CHO cells transiently expressing human HSD11β1; 200 nM cortisone+500 uM NADPH overnight; cortisone to cortisol by LC/MS-MS; read-out: 11βHSD1 (IC50). Put shortly:
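CHO cells transiently transfected with human full-length HSD11β1 were re-seeded after 24 h and, 24 h later, incubated overnight with 200 nM cortisone plus 500 uM NADPH and inhibitor. Cortisone-to-cortisol conversion was measured by LC/MS-MS. IC50 from an 8-point log concentration–inhibition curve.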
For the compound `CC1CC2CCCCC2N1C(=O)CCc1nc2ccccc2s1` (centres unmarked) [Example 83, 3-(1,3-benzothiazol-2-yl)-1-(2-methyloctahydro-1H-indol-1-yl)propan-1-one], the IC50 was over 250 nM. For `CC(CC(=O)N1CCC(C(=O)O)C2CCCCC21)c1c[nH]c2cccc(C3CC3)c12` (centres unmarked) [Compound 194, 1-[3-(4-cyclopropyl-1H-indol-3-yl)butanoyl]decahydroquinoline-4-carboxylic acid], the IC50 was over 250 nM. To `CC(CC(=O)N1CCCC2CCCCC21)c1c[nH]c2ccccc12` (single isomer, unassigned) [Example 119, 3-(1H-indol-3-yl)-1-(octahydroquinolin-1(2H)-yl)butan-1-one] belongs under 100 nM; to `Cn1nc(CCC(=O)N2CCCC3C(C(=O)O)CCCC32)c2c(C3CC3)cccc21` (centres unmarked) [Compound 268, 1-(3-(4-cyclopropyl-1-methyl-1H-indazol-3-yl)propanoyl) decahydroquinoline-5-carboxylic acid], over 250 nM; to `O=C(Cc1c[nH]c2ccc(F)cc12)N1CCCC2CCCCC21` (centres unmarked) [Compound 10, 2-(5-fluoro-1H-indol-3-yl)-1-(octahydroquinolin-1(2H)-yl)ethanone], 100 to 150 nM. Turning to `Cc1cccc2c1c(CCC(=O)N1CCCC3CCCCC31)cn2C` (centres unmarked) [Compound 27, 3-(1,4-dimethyl-1H-indol-3-yl)-1-(octahydroquinolin-1(2H)-yl)propan-1-one], the IC50 was under 100 nM. For the compound `CC(CC(=O)N1CCC(C(=O)O)C2CCCCC21)c1c[nH]c2ncccc12` (centres unmarked) [Example 165, 1-[3-(1H-pyrrolo[2,3-b]pyridin-3-yl)butanoyl]decahydroquinoline-4-carboxylic acid], the IC50 is over 250 nM.

In the case of `CCn1cc(CCC(=O)N2CCCC3CCCCC32)c2c(C)cccc21` (centres unmarked) [Compound 33, 3-(1-ethyl-4-methyl-1H-indol-3-yl)-1-(octahydroquinolin-1(2H)-yl)propan-1-one], the IC50 was over 250 nM. In the case of `O=C(CCc1c[nH]c2ccccc12)N1CCC2CCCCC21` (centres unmarked) [Compound 41, 3-(1H-indol-3-yl)-1-(octahydro-1H-Indol-1-yl)propan-1-one], the IC50 was 100 to 150 nM. Under `CC(C)c1cccc2[nH]cc(C(C)CC(=O)N3CCCC4C(C(=O)O)CCCC43)c12` (centres unmarked) [Compound 211, 1-{3-[4-(propan-2-yl)-1H-indol-3-yl]butanoyl}decahydroquinoline-5-carboxylic acid] stands under 100 nM. To `CC(C)C(CC(=O)N1CCC(C(=O)O)C2CCCCC21)c1c[nH]c2cccc(F)c12` (centres unmarked) [Example 179, 1-[3-(4-fluoro-1H-Indol-3-yl)-4-methylpentanoyl]decahydroquinoline-4-carboxylic acid] belongs over 250 nM; to `CC(CC(=O)N1CCC(C(=O)O)C2CCCCC21)c1nc2ccccc2s1` (centres unmarked) [Example 154, 1-[3-(1,3-benzothiazol-2-yl)butanoyl]decahydroquinoline-4-carboxylic acid], over 250 nM; to `O=C(CCc1c[nH]c2ccccc12)N1CC2CCCCC2C1` (centres unmarked) [Compound 42, 3-(1H-indol-3-yl)-1-(octahydro-2H-isoindol-2-yl)propan-1-one], over 250 nM.

As to `O=C(CCc1c[nH]c2ccccc12)N1CCCC2CCCCC21` (single isomer, unassigned) [Compound 52, 3-(1H-indol-3-yl)-1-(octahydroquinolin-1(2H)-yl)propan-1-one], the IC50 was over 250 nM. Consider `CC(CC(=O)N1CCCC2(c3ccccc3)CCCCC12)c1c[nH]c2cccc(Cl)c12` (centres unmarked) [Example 128, 3-(4-chloro-1H-indol-3-yl)-1-(4a-phenyloctahydroquinolin-1(2H)-yl)butan-1-one], for which the IC50 is over 250 nM. To `CC(CC(=O)N1CCCC2CC(C(=O)O)CCC21)c1c[nH]c2cccc(C3CC3)c12` (centres unmarked) [Compound 217, 1-[3-(4-cyclopropyl-1H-indol-3-yl)butanoyl]decahydroquinoline-6-carboxylic acid] belongs 100 to 150 nM.

For the compound `N#CC(Cc1c[nH]c2ccccc12)C(=O)N1CCCC2CCCCC21` (centres unmarked) [Example 98, 2-(1H-indol-3-ylmethyl)-3-(octahydroquinolin-1(2H)-yl)-3-oxopropanenitrile], the IC50 is over 250 nM. Under `CC(CC(=O)N1CCC(=O)C2CCCCC21)c1c[nH]c2cccc(Cl)c12` (centres unmarked) [Compound 235, 1-[3-(4-chloro-1H-indol-3-yl)butanoyl]octahydroquinolin-4(1H)-one] stands under 100 nM; under `Cc1[nH]c2ccc(F)cc2c1CCC(=O)N1CCCC2CCCCC21` (centres unmarked) [Compound 16, 3-(5-fluoro-2-methyl-1H-indol-3-yl)-1-(octahydroquinolin-1(2H)-yl)propan-1-one], 150 to 200 nM. Consider `CC(Oc1c[nH]c2ccccc12)C(=O)N1CCCC2CCCCC21` (centres unmarked) [Compound 25, 2-(1H-indol-3-yloxy)-1-(octahydroquinolin-1(2H)-yl)propan-1-one], for which the IC50 was over 250 nM. `CC(CC(=O)N1CCOC2CCCCC21)c1c[nH]c2cccc(F)c12` (single isomer, unassigned) [Example 138, 3-(4-fluoro-1H-indol-3-yl)-1-(octahydro-4H-1,4-benzoxazin-4-yl)butan-1-one]: the IC50 lay in the range of 150 to 200 nM. Under `CCOC(=O)C12CCCCC1N(C(=O)CC(C)c1c[nH]c3cccc(Cl)c13)CCC2` (centres unmarked) [Example 127, ethyl 1-[3-(4-chloro-1H-indol-3-yl)butanoyl]octahydroquinoline-4a(2H)-carboxylate] stands over 250 nM; under `CC(CC(=O)N1CCCC2CCCCC21)c1c[nH]c2cccc(F)c12` (single isomer, unassigned) [Example 123, 3-(4-fluoro-1H-indol-3-yl)-1-(octahydroquinolin-1(2H)-yl)butan-1-one], under 100 nM; under `CC(CC(=O)N1CCC[C@H]2CCCC[C@@H]21)c1c[nH]c2cccc(Cl)c12` (stereo partly drawn) [Example 126, 3-(4-chloro-1H-indol-3-yl)-1-[trans-(4a,8a)-octahydroquinolin-1(2H)-yl]butan-1-one], over 250 nM. To `CC(C)Oc1cccc2[nH]cc(C(C)CC(=O)N3CCCC4C(C(=O)O)CCCC43)c12` (centres unmarked) [Compound 201, 1-{3-[4-(propan-2-yloxy)-1H-indol-3-yl]butanoyl}decahydroquinoline-5-carboxylic acid] belongs under 100 nM; to `CC(C)C(CC(=O)N1CCOC2CCCCC21)c1c[nH]c2cccc(F)c12` (centres unmarked) [Example 135, 3-(4-fluoro-1H-indol-3-yl)-4-methyl-1-(octahydro-4H-1,4-benzoxazin-4-yl)pentan-1-one], over 250 nM. To `CC(CC(=O)N1CCCC2C(C(=O)O)CCCC21)c1c[nH]c2cccc(-c3ccc(F)o3)c12` (single isomer, unassigned) [Compound 251, 1-{3-[4-(5-fluorofuran-2-yl)-1H-indol-3-yl]butanoyl}decahydroquinoline-5-carboxylic acid] belongs under 100 nM; to `CC(CC(=O)N1CCCC2(CO)CCCCC12)c1c[nH]c2cccc(Cl)c12` (centres unmarked) [Example 130, 3-(4-chloro-1H-indol-3-yl)-1-[4a-(hydroxymethyl)octahydroquinolin-1(2H)-yl]butan-1-one], over 250 nM. Turning to `CC(CC(=O)N1CCCC2C(C(=O)O)CCCC21)c1c[nH]c2cccc(-c3ccc(F)cc3)c12` (centres unmarked) [Compound 243, 1-{3-[4-(4-fluorophenyl)-1H-indol-3-yl]butanoyl}decahydroquinoline-5-carboxylic acid], the IC50 was under 100 nM. To `Cc1cc(-c2cccc3[nH]cc(C(C)CC(=O)N4CCCC5C(C(=O)O)CCCC54)c23)on1` (centres unmarked) [Compound 239, 1-{3-[4-(3-methyl-1,2-oxazol-5-yl)-1H-indol-3-yl]butanoyl}decahydroquinoline-5-carboxylic acid] belongs over 250 nM. To `O=C(O)C1CCCC2C1CCCN2C(=O)CC(c1cccs1)c1c[nH]c2cccc(Cl)c12` (single isomer, unassigned) [Compound 218, 1-[3-(4-chloro-1H-indol-3-yl)-3-(thiophen-2-yl)propanoyl]decahydroquinoline-5-carboxylic acid] belongs under 100 nM; to `COC12CCCCC1N(C(=O)CC(C)c1c[nH]c3ncccc13)CCC2` (centres unmarked) [Example 153, 1-(4a-methoxyoctahydroquinolin-1(2H)-yl)-3-(1H-pyrrolo[2,3-b]pyridin-3-yl)butan-1-one], 150 to 200 nM; to `O=C(O)Cn1cc(CCC(=O)N2CCCC3CCCCC32)c2ccccc21` (centres unmarked) [Compound 46, {3-[3-(octahydroquinolin-1(2H)-yl)-3-oxopropyl]-1H-indol-1-yl}acetic acid], over 250 nM. To `O=C(O)C1CCN(C(=O)CC(c2ccccc2)n2nnc3ccccc32)C2CCCCC12` (single isomer, unassigned) [Example 182, 1-[3-(1H-benzotriazol-1-yl)-3-phenylpropanoyl]decahydroquinoline-4-carboxylic acid] belongs over 250 nM.

Consider `CC(CC(=O)N1CCCC2C(C(=O)O)CCCC21)c1c[nH]c2cccc(-c3ncccc3F)c12` (centres unmarked) [Compound 262, 1-{3-[4-(3-fluoropyridin-2-yl)-1H-indol-3-yl]butanoyl}decahydroquinoline-5-carboxylic acid], for which the IC50 was over 250 nM. To `CC12CCCCC1N(C(=O)CCn1nnc3ccccc31)CCC2` (centres unmarked) [Example 90, 3-(1H-benzotriazol-1-yl)-1-(4a-methyloctahydroquinolin-1(2H)-yl)propan-1-one] belongs 100 to 150 nM; to `CC(CC(=O)N1CCCC2C(C(=O)O)CCCC21)c1c[nH]c2cccc(C3CC3)c12` (single isomer, unassigned) [Compound 198, 1-[3-(4-cyclopropyl-1H-indol-3-yl)butanoyl]decahydroquinoline-5-carboxylic acid], 100 to 150 nM. As for `CC(CC(=O)N1CCCC2CCCCC21)c1c[nH]c2ccccc12` (centres unmarked) [Compound 1, 3-(1H-indol-3-yl)-1-(octahydroquinolin-1(2H)-yl)butan-1-one], the IC50 was under 100 nM.
